Counter-ions that a name gives are not always drawn. Like-named read-outs stand apart in the source and are kept apart here.
Tested on: gastric acid secretion
Test: animal or person
Format: in vivo, dog
Conditions: for inhibition in vivo at 0.4 mg/kg / inhibition in vivo at 0.8 mg/kg / inhibition in vivo at 1.6 mg/kg: Canis lupus familiaris
[1] = iv, 24 h, read-out: Persistency of inhibitory effect against gastric acid secretion (%)
[2] = iv, read-out: Inhibitory effect against gastric acid secretion (%)

With `Cc1cnc(C[S+]([O-])c2nc3ccccc3[nH]2)c(C)c1OCC1COC(C)(C)OC1` (stereo not drawn) [Example 11, 2-(((4-((2,2-dimethyl-1,3-dioxan-5-yl)methoxy)-3,5-dimethylpyridin-2-yl)methyl)sulfinyl)-1H-benzimidazole sodium salt] the inhibition in vivo at 0.4 mg/kg [1] was 65%, the inhibition in vivo at 0.8 mg/kg [1] was 89% and the inhibition in vivo at 0.4 mg/kg [2] was 79%. The inhibition in vivo at 0.8 mg/kg [2] was 100%.
Work on `CCC1(CC)OCC(COc2ccnc(C[S+]([O-])c3nc4ccccc4[nH]3)c2C)O1` (stereo not drawn) [Example 65, 2-(((4-((2,2-diethyl-1,3-dioxolan-4-yl)methoxy)-3-methylpyridin-2-yl)methyl)sulfinyl)-1H-benzimidazole sodium salt] yielded an inhibition in vivo at 1.6 mg/kg [1] of 91% and an inhibition in vivo at 1.6 mg/kg [2] of 100%.
`CCC1(CCOc2ccnc(C[S+]([O-])c3nc4ccccc4[nH]3)c2C)OCC2(CO1)OCCO2` (stereo not drawn) [Example 4, 2-(((4-(2-(8-ethyl-1,4,7,9-tetraoxaspiro[4.5]dec-8-yl)ethoxy)-3-methylpyridin-2-yl)methyl)sulfinyl)-1H-benzimidazole sodium salt] showed an inhibition in vivo at 0.8 mg/kg [1] of 93% and an inhibition in vivo at 0.8 mg/kg [2] of 100%.
`Cc1c(OCCC2OCC(C)(C)CO2)ccnc1C[S+]([O-])c1nc2ccccc2[nH]1` (stereo not drawn) [Example 86, 2-(((4-(2-(5,5-dimethyl-1,3-dioxan-2-yl)ethoxy)-3-methylpyridin-2-yl)methyl)sulfinyl)-1H-benzimidazole sodium salt] showed an inhibition in vivo at 0.8 mg/kg [1] of 75% and an inhibition in vivo at 0.8 mg/kg [2] of 100%.
`CCC1(CCOc2ccnc(C[S+]([O-])c3nc4c(C)cccc4[nH]3)c2C)OCCO1` (stereo not drawn) [Example 41, 2-(((4-(2-(2-ethyl-1,3-dioxolan-2-yl)ethoxy)-3-methylpyridin-2-yl)methyl)sulfinyl)-4-methyl-1H-benzimidazole sodium salt] gave an inhibition in vivo at 1.6 mg/kg [1] of 85% and an inhibition in vivo at 1.6 mg/kg [2] of 100%.
`Cc1c(OCCC2(C)OCCO2)ccnc1C[S+]([O-])c1nc2ccccc2[nH]1` (stereo not drawn) [Example 69, 2-(((3-methyl-4-(2-(2-methyl-1,3-dioxolan-2-yl)ethoxy)pyridin-2-yl)methyl)sulfinyl)-1H-benzimidazole sodium salt] showed an inhibition in vivo at 1.6 mg/kg [1] of 78% and an inhibition in vivo at 1.6 mg/kg [2] of 100%.
`CCc1c(OCC2COC(C)(C)O2)ccnc1C[S+]([O-])c1nc2ccccc2[nH]1` (stereo not drawn) [Example 51, 2-(((4-((2,2-dimethyl-1,3-dioxolan-4-yl)methoxy)-3-ethylpyridin-2-yl)methyl)sulfinyl)-1H-benzimidazole sodium salt] gave an inhibition in vivo at 1.6 mg/kg [1] of 83% and an inhibition in vivo at 1.6 mg/kg [2] of 100%.
In the case of `Cc1cnc(C[S+]([O-])c2nc3ccccc3[nH]2)c(C)c1OCC1COC2(CCC2)OC1` (stereo not drawn) [Example 13, 2-(((4-(5,9-dioxaspiro[3.5]non-7-ylmethoxy)-3,5-dimethylpyridin-2-yl)methyl)sulfinyl)-1H-benzimidazole sodium salt], the inhibition in vivo at 0.8 mg/kg [1] is reported as 74% and the inhibition in vivo at 0.8 mg/kg [2] is reported as 100%.
Compound `Cc1c(OCC2COC(CF)(CF)OC2)ccnc1C[S+]([O-])c1nc2ccccc2[nH]1` (stereo not drawn) [Example 7, 2-(((4-((2,2-bis(fluoromethyl)-1,3-dioxan-5-yl)methoxy)-3-methylpyridin-2-yl)methyl)sulfinyl)-1H-benzimidazole sodium salt] has an inhibition in vivo at 0.8 mg/kg [1] of 90% and an inhibition in vivo at 0.8 mg/kg [2] of 99%.
In the case of `Cc1cnc(C[S+]([O-])c2nc3ccccc3[n-]2)c(C)c1OCC1COC(C)(C)OC1.[Na+]` (stereo not drawn) [Example 19, Sodium salt of an optical isomer (long in retention time) of 2-(((4-((2,2-dimethyl-1,3-dioxan-5-yl)methoxy)-3,5-dimethylpyridin-2-yl)methyl)sulfinyl)-1H-benzimidazole], the inhibition in vivo at 0.8 mg/kg (i.d., dose 0.8 mg/kg i.d., first day, 1 h 40 min to 2 h after administration, histamine i.v., read-out: Inhibitory effect against gastric acid secretion (%)) is reported as 82%, the “Inhibitory effect against gastric acid secretion (%)” value (dose 0.4 mg/kg i.d., first day, 1 h 40 min to 2 h after administration, histamine i.v., 0.4 mg/kg) is reported as 13% and the “Persistency of inhibitory effect against gastric acid secretion (%)” value (dose 0.4 mg/kg i.d., second day, 24 hours after administration, histamine i.v., 0.4 mg/kg) is reported as −4%. For the same compound, the “Persistency of inhibitory effect against gastric acid secretion (%)” value (dose 0.8 mg/kg i.d., second day, 24 hours after administration, histamine i.v.) was 56%.
`Cc1c(OCC2COC(C)(C)O2)ccnc1C[S+]([O-])c1nc2cc(F)ccc2[nH]1` (stereo not drawn) [Example 52, 2-(((4-((2,2-dimethyl-1,3-dioxolan-4-yl)methoxy)-3-methylpyridin-2-yl)methyl)sulfinyl)-5-fluoro-1H-benzimidazole sodium salt] gave an inhibition in vivo at 1.6 mg/kg [1] of 87% and an inhibition in vivo at 1.6 mg/kg [2] of 100%.
Compound `Cc1c(OCCC2(C)OCC3(CO2)OCCO3)ccnc1C[S+]([O-])c1nc2ccccc2[nH]1` (stereo not drawn) [Example 73, 2-(((3-methyl-4-(2-(8-methyl-1,4,7,9-tetraoxaspiro[4.5]dec-8-yl)ethoxy)pyridin-2-yl)methyl)sulfinyl)-1H-benzimidazole sodium salt] has an inhibition in vivo at 0.8 mg/kg [1] of 94% and an inhibition in vivo at 0.8 mg/kg [2] of 100%.
`Cc1c(OCC2COC3(CCC3)OC2)ccnc1C[S+]([O-])c1nc2ccccc2[nH]1` (stereo not drawn) [Example 22, 2-(((4-(5,9-dioxaspiro[3.5]non-7-ylmethoxy)-3-methylpyridin-2-yl)methyl)sulfinyl)-1H-benzimidazole sodium salt] gave an inhibition in vivo at 1.6 mg/kg [1] of 97% and an inhibition in vivo at 1.6 mg/kg [2] of 100%.
In the case of `CCC1(COc2ccnc(C[S+]([O-])c3nc4ccccc4[nH]3)c2C)OCCCO1` (stereo not drawn) [Example 42, 2-(((4-((2-ethyl-1,3-dioxan-2-yl)methoxy)-3-methylpyridin-2-yl)methyl)sulfinyl)-1H-benzimidazole sodium salt], the inhibition in vivo at 0.8 mg/kg [1] is reported as 72% and the inhibition in vivo at 0.8 mg/kg [2] is reported as 60%.
In the case of `CCC1(CC)OCC(COc2ccnc(C[S+]([O-])c3nc4ccccc4[nH]3)c2C)CO1` (stereo not drawn) [Example 23, 2-(((4-((2,2-diethyl-1,3-dioxan-5-yl)methoxy)-3-methylpyridin-2-yl)methyl)sulfinyl)-1H-benzimidazole sodium salt], the inhibition in vivo at 1.6 mg/kg [1] is reported as 92% and the inhibition in vivo at 1.6 mg/kg [2] is reported as 100%.
For `Cc1c(OCC2OCC(C)(C)CO2)ccnc1C[S+]([O-])c1nc2ccccc2[nH]1` (stereo not drawn) [Example 1, 2-(((4-((5,5-dimethyl-1,3-dioxan-2-yl)methoxy)-3-methylpyridin-2-yl)methyl)sulfinyl)-1H-benzimidazole sodium salt], the inhibition in vivo at 0.4 mg/kg [1] was 76%, the inhibition in vivo at 0.8 mg/kg [1] was 90% and the inhibition in vivo at 0.4 mg/kg [2] was 94%. For the same compound, the inhibition in vivo at 0.8 mg/kg [2] was 100%.
`CCC1(CCOc2ccnc(C[S+]([O-])c3nc4ccccc4[nH]3)c2C)OCCO1` (stereo not drawn) [Example 39, 2-(((4-(2-(2-ethyl-1,3-dioxolan-2-yl)ethoxy)-3-methylpyridin-2-yl)methyl)sulfinyl)-1H-benzimidazole sodium salt] showed an inhibition in vivo at 1.6 mg/kg [1] of 86% and an inhibition in vivo at 1.6 mg/kg [2] of 100%.
`Cc1c(OCCC2(C)OCC(C)(C)CO2)ccnc1C[S+]([O-])c1nc2ccccc2[nH]1` (stereo not drawn) [Example 34, 2-(((3-methyl-4-(2-(2,5,5-trimethyl-1,3-dioxan-2-yl)ethoxy)pyridin-2-yl)methyl)sulfinyl)-1H-benzimidazole sodium salt] was tested, and the inhibition in vivo at 1.6 mg/kg [1] was 78% and the inhibition in vivo at 1.6 mg/kg [2] was 100%.
For `COC1OCC(COc2ccnc(C[S+]([O-])c3nc4ccccc4[nH]3)c2C)CO1` (stereo not drawn) [Example 6, 2-(((4-((2-methoxy-1,3-dioxan-5-yl)methoxy)-3-methylpyridin-2-yl)methyl)sulfinyl)-1H-benzimidazole sodium salt], the inhibition in vivo at 0.8 mg/kg [1] was 89% and the inhibition in vivo at 0.8 mg/kg [2] was 100%.
In the case of `Cc1c(OCC2OCCO2)ccnc1C[S+]([O-])c1nc2ccccc2[nH]1` (stereo not drawn) [Example 66, 2-(((4-(1,3-dioxolan-2-ylmethoxy)-3-methylpyridin-2-yl)methyl)sulfinyl)-1H-benzimidazole sodium salt], the inhibition in vivo at 1.6 mg/kg [1] is reported as 79% and the inhibition in vivo at 1.6 mg/kg [2] is reported as 100%.
Compound `Cc1c(OCC2(C)OCCO2)ccnc1C[S+]([O-])c1nc2ccccc2[nH]1` (stereo not drawn) [Example 70, Sodium salt of an optical isomer of 2-(((3-methyl-4-((2-methyl-1,3-dioxolan-2-yl)methoxy)pyridin-2-yl)methyl)sulfinyl)-1H-benzimidazole] has an inhibition in vivo at 1.6 mg/kg (i.d., 24 h, dose 1.6 mg/kg i.d., second day, 24 hours after administration, histamine i.v., read-out: Persistency of inhibitory effect against gastric acid secretion (%)) of 77% and an inhibition in vivo at 1.6 mg/kg (i.d., dose 1.6 mg/kg i.d., first day, 1 h 40 min to 2 h after administration, histamine i.v., read-out: Inhibitory effect against gastric acid secretion (%)) of 100%.
Compound `Cc1c(OCC2(C)OCCO2)ccnc1C[S+]([O-])c1nc2ccccc2[nH]1` (stereo not drawn) [Example 67, 2-(((3-methyl-4-((2-methyl-1,3-dioxolan-2-yl)methoxy)pyridin-2-yl)methyl)sulfinyl)-1H-benzimidazole sodium salt] has an inhibition in vivo at 1.6 mg/kg [1] of 83% and an inhibition in vivo at 1.6 mg/kg [2] of 100%.
`Cc1c(OCC2COC3(CCOCC3)OC2)ccnc1C[S+]([O-])c1nc2ccccc2[nH]1` (stereo not drawn) [Example 10, 2-(((3-methyl-4-(1,5,9-trioxaspiro[5.5]undec-3-ylmethoxy)pyridin-2-yl)methyl)sulfinyl)-1H-benzimidazole sodium salt] was tested, and the inhibition in vivo at 0.8 mg/kg [1] was 90%, the inhibition in vivo at 1.6 mg/kg [1] was 87% and the inhibition in vivo at 0.8 mg/kg [2] was 98%. For the same compound, the inhibition in vivo at 1.6 mg/kg [2] was 100%.
In the case of `Cc1c(OCC2COC3(CCCC3)OC2)ccnc1C[S+]([O-])c1nc2ccccc2[nH]1` (stereo not drawn) [Example 21, 2-(((4-(6,10-dioxaspiro[4.5]dec-8-ylmethoxy)-3-methylpyridin-2-yl)methyl)sulfinyl)-1H-benzimidazole sodium salt], the inhibition in vivo at 1.6 mg/kg [1] is reported as 94% and the inhibition in vivo at 1.6 mg/kg [2] is reported as 100%.
Work on `[O-][S+](Cc1cc(OCC2COC3(CCCC3)OC2)ccn1)c1nc2ccccc2[nH]1` (stereo not drawn) [Example 58, 2-(((4-(6,10-dioxaspiro[4.5]dec-8-ylmethoxy)pyridin-2-yl)methyl)sulfinyl)-1H-benzimidazole sodium salt] yielded an inhibition in vivo at 0.8 mg/kg [1] of 77% and an inhibition in vivo at 0.8 mg/kg [2] of 95%.
`Cc1ccc2[nH]c([S+]([O-])Cc3nccc(OCCC4COC(C)(C)O4)c3C)nc2c1` (stereo not drawn) [Example 47, 2-(((4-(2-(2,2-dimethyl-1,3-dioxolan-4-yl)ethoxy)-3-methylpyridin-2-yl)methyl)sulfinyl)-5-methyl-1H-benzimidazole sodium salt] showed an inhibition in vivo at 1.6 mg/kg [1] of 87% and an inhibition in vivo at 1.6 mg/kg [2] of 100%.

From patent publication US8124780B2, “Benzimidazole compound” (priority 2005, dated 2012)
